Data: the supplement of paper PMC10307832

Assays:
Assay in all cases: relative viability (nuclei count vs DMSO), 5 days (fraction); higher = more cells survive
Sunitinib + Crizotinib = compound: CCN(CC)CCNC(=O)c1c(C)[nH]c(/C=C2\C(=O)Nc3ccc(F)cc32)c1C [Sunitinib] + C[C@@H](Oc1cc(-c2cnn(C3CCNCC3)c2)cnc1N)c1c(Cl)ccc(F)c1Cl [Crizotinib] (partner 1 µM)
Summary of the method: (§1)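 After 5 days of treatment, lung cancer cells in 1536-well plates were fixed and stained in a single step (final 0.05% Triton X-100, 1% formaldehyde, 1 ug/ml Hoechst) and their nuclei counted on 4× images. Treatment had been applied by pin tool the day after seeding as one drug alone or as a fixed anchor-drug dose with five library-drug doses (not always all listed) in √10 steps. Relative viability is the nuclei count of treated wells divided by that of vehicle wells, and values are medians of duplicate plates.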

Sunitinib + Phenformin = compound: CCN(CC)CCNC(=O)c1c(C)[nH]c(/C=C2\C(=O)Nc3ccc(F)cc32)c1C [Sunitinib] + N=C(N)NC(=N)NCCc1ccccc1 [Phenformin] (partner 250 µM)
Summary of the method: as §1

Sunitinib + Navitoclax = compound: CCN(CC)CCNC(=O)c1c(C)[nH]c(/C=C2\C(=O)Nc3ccc(F)cc32)c1C [Sunitinib] + CC1(C)CCC(c2ccc(Cl)cc2)=C(CN2CCN(c3ccc(C(=O)NS(=O)(=O)c4ccc(N[C@H](CCN5CCOCC5)CSc5ccccc5)c(S(=O)(=O)C(F)(F)F)c4)cc3)CC2)C1 [Navitoclax] (partner 0.5 µM)
Summary of the method: as §1

Sunitinib + Decitabine = compound: CCN(CC)CCNC(=O)c1c(C)[nH]c(/C=C2\C(=O)Nc3ccc(F)cc32)c1C [Sunitinib] + Nc1ncn([C@H]2C[C@H](O)[C@@H](CO)O2)c(=O)n1 [Decitabine] (partner 2 µM)
Summary of the method: as §1

| Cell Line | relative viability (Sunitinib + Crizotinib; first compound 0.06325 µM) | relative viability (Sunitinib + Crizotinib; first compound 0.2 µM) | relative viability (Sunitinib + Crizotinib; first compound 0.6325 µM) | relative viability (Sunitinib + Crizotinib; first compound 2 µM) | relative viability (Sunitinib + Phenformin; first compound 0.02 µM) | relative viability (Sunitinib + Phenformin; first compound 0.06325 µM) | relative viability (Sunitinib + Phenformin; first compound 0.2 µM) | relative viability (Sunitinib + Phenformin; first compound 0.6325 µM) | relative viability (Sunitinib + Phenformin; first compound 2 µM) | relative viability (Sunitinib + Navitoclax; first compound 0.02 µM) | relative viability (Sunitinib + Navitoclax; first compound 0.06325 µM) | relative viability (Sunitinib + Navitoclax; first compound 0.2 µM) | relative viability (Sunitinib + Navitoclax; first compound 0.6325 µM) | relative viability (Sunitinib + Navitoclax; first compound 2 µM) | relative viability (Sunitinib + Decitabine; first compound 0.02 µM) | relative viability (Sunitinib + Decitabine; first compound 0.06325 µM) | relative viability (Sunitinib + Decitabine; first compound 0.2 µM) | relative viability (Sunitinib + Decitabine; first compound 0.6325 µM) | relative viability (Sunitinib + Decitabine; first compound 2 µM) | relative viability (Sunitinib + Crizotinib; first compound 0.02 µM) |
| --- | --- | --- | --- | --- | --- | --- | --- | --- | --- | --- | --- | --- | --- | --- | --- | --- | --- | --- | --- | --- |
| PC-14 | 0.863 | 1.08 | 0.921 | 0.816 | 0.557 | 0.552 | 0.674 | 0.568 | 0.571 | 0.987 | 0.999 | 1.1 | 0.996 | 0.958 | 0.2 | 0.23 | 0.239 | 0.23 | 0.252 |  |
| RERF-LC-KJ | 0.838 | 0.934 | 0.786 | 0.855 | 0.422 | 0.407 | 0.48 | 0.411 | 0.404 | 0.844 | 0.899 | 1.13 | 0.876 | 0.977 | 0.713 | 0.743 | 0.651 | 0.683 | 0.777 | 0.802 |
| SK-LU-1 | 0.815 | 0.969 | 0.884 | 0.67 | 0.46 | 0.63 | 0.586 | 0.523 | 0.409 | 0.768 | 0.6 | 0.796 |  | 0.727 | 0.571 | 0.688 | 0.635 | 0.651 | 0.603 | 0.902 |
| SK-MES-1 | 0.996 | 1.07 | 1.12 | 0.959 | 0.619 | 0.665 | 0.689 | 0.655 | 0.52 | 1.18 | 1.34 | 1.43 | 1.3 | 1.3 | 0.345 | 0.369 | 0.368 | 0.389 | 0.379 | 0.928 |
| SW 1573 | 0.855 |  | 0.976 | 0.792 | 0.338 | 0.449 | 0.368 | 0.386 | 0.306 | 1.04 | 1.18 | 1.07 | 1.12 | 0.976 | 0.403 | 0.508 | 0.556 | 0.62 | 0.554 | 0.736 |
| UMC-11 | 0.569 | 0.571 | 0.692 | 0.556 | 0.331 | 0.352 | 0.355 | 0.324 | 0.309 | 0.302 | 0.307 | 0.367 | 0.281 | 0.272 | 0.553 | 0.551 | 0.583 | 0.737 | 0.597 | 0.578 |
